Test results from US20040260318A1, “Anastomotic connector devices” (Angiotech International AG, priority 2003, published 2004).

Tests used:
collagenase expression = assay: Effect of other anti-microtubule agents on IL-1-induced collagenase expression in primary chondrocytes; format: cell-based, calf; settings: pre-incubation of chondrocytes 6 hours, then IL-1 20 ng/ml 18 hours; FIGS. 7A-H
Protocol: Primary chondrocyte cultures were freshly isolated from calf cartilage. The cells were plated at 2.5×10^6 per ml in 100×20 mm culture dishes and incubated in Ham's F12 medium containing 5% FBS overnight at 37° C. The cells were starved in serum-free medium overnight and then treated with anti-microtubule agents at various concentrations for 6 hours. IL-1 (20 ng/ml) was then added to each plate and the plates incubated for an additional 18 hours. Total RNA was isolated by the acidified guanidine isothiocyanate method and subjected to electrophoresis on a denatured gel. Denatured RNA samples (15 μg) were analyzed by gel electrophoresis in a 1 % denatured gel, transferred to a nylon membrane and hydridized with the ^32P-labeled collagenase cDNA probe. ^32P-labeled glyceraldehyde phosphate […] (GAPDH) cDNA as an internal standard to ensure roughly equal loading. The exposed films were scanned and quantitatively analyzed with ImageQuant.

human fibroblasts = assay: Screening assay for effect on cell proliferation (CYQUANT fluorescence); format: cell-based; settings: Fibroblast, 72 hours incubation, FIG. 2
Protocol: Fibroblasts at 70-90% confluency are trypsinized, replated at 600 cells/well in media in 96-well plates and allowed to attachment overnight. Mitoxantrone is prepared in DMSO at a concentration of 10^−2 M and diluted 10-fold to give a range of stock concentrations (10^−8 M to 10^−2 M). Drug dilutions are diluted 1/1000 in media and added to cells to give a total volume of 200 μL/well. Each drug concentration is tested in triplicate wells. Plates containing fibroblasts and mitoxantrone are incubated at 37° C. for 72 hours (In vitro toxicol. (1990) 3:219; Biotech. Histochem. (1993) 68: 29; Anal. Biochem. (1993) 213:426).
To terminate the assay, the media is removed by gentle aspiration. A 1/400 dilution of CYQUANT 400× GR dye indicator (Molecular Probes; Eugene, Ore.) is added to […] Cell Lysis buffer, and 200 μL of the mixture is added to the wells of the plate. Plates are incubated at room temperature, protected from light for 3-5 minutes. Fluorescence is read in a fluorescence microplate reader at ˜480 nm excitation wavelength and ˜520 nm emission maxima. […] An average of n=4 replicate experiments is used to determine IC50 values.

[1] = test system: IL-1β production by THP-1 cells; assay: IL-1β production by macrophages (opsonized zymosan stimulated, ELISA); format: cell-based; settings: Homo sapiens, 24 hours, 1 mg/mL opsonized zymosan, FIG. 9
Protocol: (§1) The human macrophage cell line, THP-1 is plated in a 12 well plate such that each well contains 1×10^6 cells in 2 mL of media containing 10% FCS. Opsonized zymosan is prepared by resuspending 20 mg of zymosan A in 2 mL of ddH2O and homogenizing until a uniform suspension is obtained. Homogenized zymosan is pelleted at 250 g and resuspended in 4 mL of human serum for a final concentration of 5 mg/mL. and incubated in a 37° C. water bath for 20 minutes to enable opsonization. Geldanamycin is prepared in DMSO at a concentration of 10^−2 M and serially diluted 10-fold to give a range of stock concentrations (10^−8 M to 10^−2 M).
THP-1 cells are stimulated to produce IL-1β by the addition of 1 mg/mL opsonized zymosan. Geldanamycin is added to THP-1 cells by directly adding DMSO stock solutions, prepared earlier, at a 1/1000 dilution, to each well. […]
(§2) After a 24 hour stimulation, supernatants are collected to quantify IL-1β production. IL-1β concentrations in the supernatants are determined by ELISA using recombinant human IL-1β to obtain a standard curve. […] The dilution of Capture Antibody used is lot-specific and is determined empirically. […] Stop Solution (2 N H2SO4) is then added to the wells and a yellow colour reaction is read at 450 nm with λ correction at 570 nm. Mean absorbance is determined from triplicate data readings and the mean background is subtracted. […]

[2] = test system: IL-8 production by THP-1 cells; assay: IL-8 production by macrophages (opsonized zymosan stimulated, ELISA); format: cell-based; settings: Homo sapiens, 24 hours, 1 mg/mL opsonized zymosan, FIG. 10
Protocol: as §1
THP-1 cells are stimulated to produce IL-8 by the addition of 1 mg/mL opsonized zymosan. Geldanamycin is added to THP-1 cells by directly adding DMSO stock solutions, prepared earlier, at a 1/1000 dilution, to each well. […]
as §2, with “IL-8” for “IL-1β”

[3] = test system: MCP-1 production by THP-1 cells; assay: MCP-1 production by macrophages (opsonized zymosan stimulated, ELISA); format: cell-based; settings: Homo sapiens, 24 hours, 1 mg/mL opsonized zymosan, FIG. 11
Protocol: as §1
THP-1 cells are stimulated to produce MCP-1 by the addition of 1 mg/mL opsonized zymosan. Geldanamycin is added to THP-1 cells by directly adding DMSO stock solutions, prepared earlier, at a 1/1000 dilution, to each well. […]
as §2, with “MCP-1” for “IL-1β”

| Compound | concentration (as low as) preventing IL-1-induced collagenase expression (collagenase expression) [nM] | other results |
| --- | --- | --- |
| [F][Al]([F])[F] [AIF3] | 100 |  |
| N#CC1=C(N)Oc2c(ccc3ccccc23)C1c1cccc([N+](=O)[O-])c1 (stereo not shown) [LY290181] | 100 |  |
| O=C1c2c(O)ccc(O)c2C(=O)c2c(NCCNCCO)ccc(NCCNCCO)c21 [Mitoxantrone, 9,10-Anthracenedione, 1,4-dihydroxy-5,8-bis[[2-[(2-hydroxyethyl)amino]ethyl]amino]-] |  | IC50 (human fibroblasts): 20 nM |
| [2H]O[2H] [deuterium oxide] | 100 |  |
| COC1=C2C[C@@H](C)C[C@H](OC)[C@H](O)[C@@H](C)/C=C(\C)[C@H](OC(N)=O)[C@@H](OC)/C=C\C=C(/C)C(=O)NC(=CC1=O)C2=O [geldanamycin] |  | IC50 [1]: 20 nM; IC50 [2]: 27 nM; IC50 [3]: 7 nM |
| CCOC(=O)CN [glycine ethyl ester] | 100 |  |
| ethylene glycol bis-(succinimidylsuccinate) | 100 |  |
| hexylene glycol | 100 |  |
